# Laboratory results reported in article PMC10778976, “BAY-3827 and SBI-0206965: Potent AMPK Inhibitors That Paradoxically Increase Thr172 Phosphorylation” (International Journal of Molecular Sciences, 2023).
# Legend:
# purified rat liver AMPK = assay: Allosteric activation of rat liver AMPK by AMP with and without BAY-3827; assay type: biochemical
# Description: (§1) AMPK assays measured the transfer of radioactivity from labelled ATP to a peptide substrate, which was separated from unreacted ATP by binding to P81 paper. This assay was described previously, except that we used [γ-^33P]ATP rather than [γ-^32P]ATP. The peptide substrate was the AMARA peptide in all experiments other than one, which analyzed allosteric activation by AMP (Figure 2A), when, for technical reasons, the SAMS peptide was used instead. With purified preparations of AMPK, it was assayed in solution, but for assays in cell lysates (Figure 3D and Figure 4D), it was first immunoprecipitated using a mixture of anti-α1 and -α2 antibodies and assayed in resuspended immunoprecipitates. After the initial immunoprecipitation of lysate containing 80 µg of protein, the pellets were washed twice with 1 mL of high salt IP buffer (50 mM Tris-HCL, pH 7.4 at 4 °C, 1 M NaCl, 1 mM EDTA, 1 mM EGTA, 50 mM NaF, 5 mM Na pyrophosphate, 1 mM dithiothreitol, 0.1% (v/v) Triton X-100) and twice with 1 mL of low salt IP buffer (as above but only 150 mM NaCl), followed by a final wash in 1 mL of assay buffer (50 mM Na Hepes, pH7.4, 150 mM NaCl, 1 mM dithiothreitol, 0.02% (v/v) Brij-35). After each wash, the pellet was recovered via centrifugation (16,000× g, 3 min) and then resuspended. The final resuspended pellets from each biological replicate were divided into two aliquots (40 µg lysate protein) to provide technical replicates and assayed as above.
# [1] = system: endogenous AMPK from HEK-293 cells; assay: Protection of immunoprecipitated AMPK against inactivation by PP2Cα (PPM1A); assay type: biochemical, human; settings: 200 µM
# Experimental: AMPK was immunoprecipitated from HEK-293 cell lysate (2.5 mg of lysate protein) using a mixture of anti-α1 and -α2 antibodies. After extensive washing as in Section 4.5, aliquots equivalent to 80 µg of lysate protein were incubated in a shaking incubator at 30 °C for 10 min in Hepes buffer (50 mM Na Hepes, pH 7.4, 150 mM NaCl, 1 mM dithiothreitol, 0.02% (w/v) Brij-35) with 50 mM MgCl2 and sufficient PPM1A to yield about 80% inactivation, in the presence or absence of 200 µM AMP or the indicated concentration of BAY-3827 or SBI-0206965 (total volume 50 µL). The reaction was terminated by adding 1 mL of IP buffer (50 mM Tris/HCl, pH 7.4 at room temperature, 150 mM NaCl, 1 mM EDTA, 1 mM EGTA, 5 mM Na pyrophosphate, 50 mM NaF, 1 mM dithiothreitol, 0.1% (v/v) Triton X-100) and, after additional washing in the same buffer and a final wash into Hepes buffer, AMPK activity was determined using kinase assays as above.
# [2] = system: endogenous AMPK from HEK-293 cells; assay: Activation of dephosphorylated immunoprecipitated AMPK by the LKB1 complex; assay type: biochemical, human; settings: 200 µM
# Experimental: AMPK was immunoprecipitated from HEK-293 cell lysate (2.5 mg protein) using a mixture of anti-α1 and -α2 antibodies. After extensive washing, it was incubated in a shaking incubator at 30 °C for 20 min in Hepes buffer with 50 mM MgCl2 and sufficient PPM1A to yield about 90% inactivation (total volume of 250 µL). The reaction was terminated by adding 1 mL of IP buffer and, after additional washing in the same buffer, aliquots equivalent to 80 µg of lysate protein were incubated in a shaking incubator at 30 °C for 10 min in Hepes buffer with […] and 5 mM MgCl2, with or without a limiting amount of LKB1:STRADα:MO25α complex (0.5 µg) in the presence or absence of 200 µM AMP or the indicated concentration of BAY-3827 or SBI-0206965 (total volume of 50 µL). The reaction was terminated by adding 1 mL of IP buffer and, after additional washing in the same buffer and a final wash into Hepes buffer, AMPK activity was determined using kinase assays as above.
# [3] = system: acetyl-CoA carboxylase (ACC, Ser80) phosphorylation in U2OS cells; assay: ACC phosphorylation in U2OS cells (Western blot); assay type: cell-based, human; settings: 3 µM
# Experimental: (§2) T-Rex U2OS cells carrying a Flp Recombinase Target (FRT) site were generated as described previously and grown in Dulbecco’s Modified Eagle’s Medium (DMEM) supplemented with 10% (v/v) FBS and 1% (v/v) penicillin/streptomycin.
# (§3) Cells were lysed rapidly in situ on culture plates using ice-cold lysis medium containing phosphatase inhibitors, as described previously.
# (§4) SDS-PAGE was performed using precast NuPAGE Tris-acetate 3–8% gradient polyacrylamide gels in Tris-acetate running buffer when analyzing ACC, GBF1, or Raptor, or NuPAGE Bis-Tris 4–12% gradient polyacrylamide gels in the MOPS buffer system (ThermoFisher Scientific, Waltham, MA, USA) for other proteins (unless stated otherwise). Proteins were transferred to nitrocellulose membranes using the iBlot 2 system (ThermoFisher Scientific). Membranes were enhanced if necessary using SuperSignal Western Blot Enhancer (ThermoFisher Scientific), then blocked for 1 h in Li-Cor Odyssey blocking buffer. The membranes were probed with the appropriate primary antibody ([…]) overnight at 4 °C. Detection was performed using secondary antibody or streptavidin probe (for total ACC) coupled to IR 680 or IR 800 dye, and the membranes were scanned using the LICOR Odyssey IR imager. Protein concentrations were determined by Coomassie Blue binding with bovine serum albumin as a standard. The cellular levels of AMP and ATP were determined via direct perchloric acid extraction from cells, with LC:MS used to estimate the levels of each nucleotide.
# [4] = system: Raptor (Ser792) phosphorylation in U2OS cells; assay: Raptor phosphorylation in U2OS cells (Western blot); assay type: cell-based, human; settings: 3 µM
# Experimental: as §2, §3, §4
# [5] = system: GBF1 (Thr1337) phosphorylation in U2OS cells; assay: GBF1 phosphorylation in U2OS cells (Western blot); assay type: cell-based, human; settings: 3 µM
# Experimental: as §2, §3, §4
# [6] = system: human AMPK (α2β1γ1 complex); settings: control compound; cited from earlier work
# AMPK = target: AMPK; parameters: method as in PMID 28625738; settings: read-out: Ki, competitive with ATP; cited from earlier work
# 71 kinases = system: 71 kinases; parameters: method as in PMID 17850214; settings: 1 µM, screen against 71 kinases; cited from earlier work
# 110 kinases = system: 110 kinases; parameters: method as in ref 27 = [27]; 27. International Centre for Kinase Profiling Kinase Profiling Inhibitor Database Available online: https://www.kinase-screen.mrc.ac.uk/kinase-inhibitors (accessed on 14 November 2023); settings: 10 µM, screen of 110 kinases; cited from earlier work
# [7] = target: T1, “naïve” (unphosphorylated), bacterially expressed human α1β1γ1 complex (Homo sapiens, UniProt Q13131+Q9Y478); assay: Allosteric activation of naïve (unphosphorylated) α1β1γ1 complex by MK-8722 with and without BAY-3827; assay type: biochemical
# T1 construct: (His)6
# Description: as §1
# [8] = in the presence of 30 nM BAY-3827
# T1 sequence (Q13131 whole entry): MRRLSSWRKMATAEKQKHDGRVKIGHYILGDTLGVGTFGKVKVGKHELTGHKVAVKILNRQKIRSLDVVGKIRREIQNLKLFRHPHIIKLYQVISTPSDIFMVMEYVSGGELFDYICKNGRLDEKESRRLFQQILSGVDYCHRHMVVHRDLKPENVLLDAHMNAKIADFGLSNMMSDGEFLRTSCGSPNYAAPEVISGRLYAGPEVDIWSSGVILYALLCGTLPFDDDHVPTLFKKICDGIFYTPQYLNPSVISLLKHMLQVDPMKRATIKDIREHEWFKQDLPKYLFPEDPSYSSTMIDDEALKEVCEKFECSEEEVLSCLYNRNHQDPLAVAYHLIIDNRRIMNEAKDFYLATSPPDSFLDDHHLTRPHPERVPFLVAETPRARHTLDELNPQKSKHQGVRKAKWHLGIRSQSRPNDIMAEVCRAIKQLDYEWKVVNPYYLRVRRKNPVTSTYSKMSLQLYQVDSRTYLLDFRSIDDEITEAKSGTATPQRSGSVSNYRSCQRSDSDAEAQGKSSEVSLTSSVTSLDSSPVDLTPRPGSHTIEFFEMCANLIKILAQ
# T1 sequence (Q9Y478 2-270): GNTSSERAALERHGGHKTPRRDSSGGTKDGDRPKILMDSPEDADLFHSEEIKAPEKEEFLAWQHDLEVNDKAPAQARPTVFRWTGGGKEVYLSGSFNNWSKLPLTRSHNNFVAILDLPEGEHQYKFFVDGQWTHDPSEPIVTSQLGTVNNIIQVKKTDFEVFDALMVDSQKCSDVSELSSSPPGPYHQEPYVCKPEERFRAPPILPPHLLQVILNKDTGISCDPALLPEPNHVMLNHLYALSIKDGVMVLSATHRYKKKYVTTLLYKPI
# T1 sequence (P54619 whole entry partner): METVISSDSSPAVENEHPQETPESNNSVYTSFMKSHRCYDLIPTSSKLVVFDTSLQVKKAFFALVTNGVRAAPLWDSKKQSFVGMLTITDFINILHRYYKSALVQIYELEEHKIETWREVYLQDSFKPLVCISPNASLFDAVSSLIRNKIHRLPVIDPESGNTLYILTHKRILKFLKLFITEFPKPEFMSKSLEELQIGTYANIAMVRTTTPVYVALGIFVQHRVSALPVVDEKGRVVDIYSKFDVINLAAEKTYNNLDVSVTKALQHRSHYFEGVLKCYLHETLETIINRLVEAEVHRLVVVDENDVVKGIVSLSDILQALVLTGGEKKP
molecule,measurement,setting,value
Nc1ncnc2c1ncn2[C@@H]1O[C@H](COP(=O)(O)O)[C@@H](O)[C@H]1O [AMP],maximal activation by AMP,purified rat liver AMPK; [8],2.7 fold
same,EC50,purified rat liver AMPK; without BAY-3827,5.9 µM
same,maximal activation by AMP,purified rat liver AMPK; without BAY-3827,2.9 fold
same,IC50,"purified rat liver AMPK; without BAY-3827, read-out: IC50 for inhibition by high AMP",1800 µM
same,protection against inactivation by PPM1A,[1],substantial protection
same,promotion of activation by LKB1,[2],> 2 fold
CC1=C(C#N)C(c2ccc3c(c2)c(NC(=O)c2ccccc2C)nn3C)C(C#N)=C(C)N1 [BAY-974],elimination of MK-8722-stimulated ACC phosphorylation,[3],not
same,elimination of MK-8722-stimulated Raptor phosphorylation,[4],not
same,elimination of MK-8722-stimulated GBF1 phosphorylation,[5],not
same,inhibition of AMPK,[6],did not inhibit
CN(C)S(=O)(=O)c1ccc2c(c1)/C(=C/c1cc3c([nH]1)CCCC3)C(=O)N2 [SU6656],Ki,AMPK,0.17 µM
"c1cc(-c2cnn3cc(-c4ccc(OCCN5CCCCC5)cc4)cnc23)ccn1 [compound C, dorsomorphin]",number of kinases inhibited to a greater extent than AMPK,71 kinases,9
same,number of kinases inhibited to a greater extent than AMPK,110 kinases,no less than 30
MK-8722,maximal activation by MK-8722,[7]; [8],6.7 fold
same,EC50,[7]; without BAY-3827,1.1 µM
same,maximal activation by MK-8722,[7]; without BAY-3827,11 fold
